Results as given in patent US8058309B2, “Protein kinase modulators and therapeutic uses thereof” (Novotyr Therapeutics Ltd., priority 2006, dated 2011).

Tests used:
[1] = tested on: 1376; experiment: Proliferation assay 1376; type: cell-based; conditions: Bladder, 72 hours
Procedure: (§1) Various cancer cell lines (listed in table 1) were plated at a density of 1000-5000 cells/well in 96-well plates in 90111 growth medium containing 10% FCS, 100 units/ml penicillin and 100 μg/ml streptomycin. Inhibitors were added a day later in 10 μl of 1% DMSO in DDW to obtain final concentrations of 0, 0.1, 0.3, 1, 3, and 10 μM. The final concentration of DMSO (0.1% DMSO) was kept constant in all samples. Medium with inhibitors was refreshed a day and two days later. Following exposure of the cells to the inhibitors for 72 hours at 37° C., the cells were fixed in 0.5% gluteraldehyde in medium for 10 min, washed three times with DDW, once with 0.1M sodium borate buffer pH 8.5 and stained with 1% methylene blue dissolved in 0.1M borate buffer solution for 60 min. Excess dye was washed out and cell-bound dye was eluted with 200 μl/well of 0.1 M HCl. The optical density value was read at 620 nm in ELISA plate reader. The data was analyzed in Microsoft Excel, using the vehicle control as 100% proliferation. The assays were performed in triplicates. The values in table 1 represent IC50 values derived from the dose-dependent growth curves obtained.
(§2) Compounds 6, 7, 8, and 9 were tested for their inhibitory potential in cell proliferation assay. In this assay cells were exposed to increasing concentrations of the molecules (at 0.1% DMSO in all wells) a day after seeding. Medium and inhibitors were refreshed every day, and following three days of treatment, cells were fixed and stained with methylene-Blue. IC50 values were determined from the curves of the optical density against compound concentration. The assay was performed in triplicates.

[2] = tested on: PANC1; experiment: Proliferation assay PANC1; type: cell-based; conditions: Homo sapiens, PANC-1, Pancreatic, 72 hours
Procedure: as §1, §2

[3] = tested on: MO59J; experiment: Proliferation assay MO59J; type: cell-based; conditions: Glioma, 72 hours
Procedure: as §1, §2

[4] = tested on: U266; experiment: Proliferation assay U266; type: cell-based; conditions: Homo sapiens, U-266, Myeloma, 72 hours
Procedure: as §1, §2

[5] = tested on: A2780 tumors; experiment: Ovarian cancer A2780 xenograft tumor growth; type: in vivo, nude mice; conditions: for Inhibition of ovarian tumor growth, comparative study: A2780, IP once a day, 20 mg/kg (FIG. 13); for Growth inhibition of ovarian cancer A2780 tumors / Growth inhibition of ovarian A2780 tumors: IP, 1/day; for Growth inhibition of ovarian cancer A2780 tumors: 20 mg/kg (FIG. 12); for Growth inhibition of ovarian A2780 tumors: 50 mg/kg
Procedure: Human hormone-refractory prostate cancer PC3 cells (ATCC, 1.5×10^6 cells per mouse) were injected subcutaneously into the right leg of Nude:Hsd mice (purchased from Harlan). Ten days later, when palpable tumors had developed, mice were divided into 3 groups with similar average tumor size. […] The mice treated with compound 7 group were daily injected with compound 7 dissolved in the below described vehicle, and the vehicle-treated group (veh) was daily injected by the vehicle alone. Vehicle included 4.4% DMSO, 1.2% Ethanol and 50% PEG400 in DDW; Groups were composed of 3 mice per group. Dose administered IP was 50 mg/Kg (4 ml/Kg) once a day for one month. The length (l) and the width (w) of the tumors were measured every day and the volumes of the tumors were calculated as follows: v=1w^2/2. Graphs present average volumes of the tumors versus time in days. The procedure was followed for the other described in-vivo studies with the following modifications:
Human ovary cancer A2780 cells (from ECACC, 2×10^6 cells per mouse) were injected subcutaneously into the right leg of female Nude:Hsd mice (purchased from Harlan). Inhibitors were injected IP daily at doses of 20 mg/kg (Exp. 2&3) or 50 mg/kg (Exp. 4) dissolved in 4.4% DMSO, 0.12% EtOH, 50% PEG-400 in DDW at volume of 4 ml/kg. The Veh group received 4.4% DMSO, 0.12% EtOH, 50% PEG-400 in DDW at volume of 4 ml/kg.

[6] = tested on: U138MG; experiment: Clonogenic assay U138MG; type: cell-based; conditions: Homo sapiens, U138-MG, Glioma
Procedure: Various cancer cells (listed in table 1) were seeded at a very low concentration (19 cells/well in 96-well plates or 63 cells/well in 24-well plates) in growth medium. A day later medium was replaced with growth medium containing various concentrations of inhibitors in a final concentration of 0.1% DMSO. The inhibitor-containing medium was refreshed three times a week. Following approximately two weeks cells were fixed by adding Gluteraldehide (0.5% final concentration) for 10 min, washed three time with DDW, once with borate buffer 0.1M and stained for 1 hour with 1% Methylene Blue in borate buffer 0.1M. Access stain was washed with water, and following drying colonies were counted. Alternatively, stain was extracted by 0.1N HCl for 1 hour and absorbance at 620 nm was measured by ELISA Reader. The assays were performed in triplicates. The values in table 1 represent IC50 values derived from the dose-dependent growth curves obtained.

[7] = tested on: A2780; experiment: Proliferation assay A2780; type: cell-based; conditions: Homo sapiens, Ovarian, 72 hours
Procedure: as §1, §2

[8] = tested on: MDA MB 468; experiment: Proliferation assay MDA MB 468; type: cell-based; conditions: Homo sapiens, Breast, 72 hours
Procedure: as §1, §2

[9] = tested on: DU145; experiment: Proliferation assay DU145; type: cell-based; conditions: Homo sapiens, DU-145, Prostate, 72 hours
Procedure: as §1, §2

[10] = tested on: ovarian cancer A2780 cells; experiment: Apoptosis (cleaved PARP) in A2780 cells; type: cell-based, human; conditions: 21 hours of exposure
Text: […] Lysate preparation and western blot were the same as described above. Apoptosis was detected by immunoblotting with rabbit anti-PARP antibodies.

[11] = tested on: metastatic melanoma YUMAC cells; experiment: Apoptosis (cleaved PARP) in YUMAC cells; type: cell-based, human; conditions: 24 hours of exposure, 3 μM
Procedure: In addition, lysates were prepared from cells exposed to inhibitors at various concentrations for 24 hours in the presence or the absence of FCS without stimulation. Lysate preparation and western blot were the same as described above. Apoptosis was detected by immunoblotting with rabbit anti-PARP antibodies.

Structure (SMILES)	IC50 [1] [µM]	IC50 [2] [µM]	IC50 [3] [µM]	IC50 [4] [µM]	Inhibition of ovarian tumor growth, comparative study [5]	IC50 [6] [µM]	IC50 [7] [µM]	IC50 [8] [µM]	IC50 [9] [µM]	Apoptosis (cleaved PARP detection) [10]	Cleavage of PARP (apoptosis) [11]	Growth inhibition of ovarian cancer A2780 tumors [5] [%]	Growth inhibition of ovarian A2780 tumors ([5]; tumors larger than 50 mm^3 at start) [%]	Growth inhibition of ovarian A2780 tumors ([5]; tumors larger than 470 mm^3 at start)
N#C/C(=C\c1cc(O)c(O)c(Br)c1)C(=S)NCc1cc(O)c(O)c(Br)c1 [Compound 6]	2.5	> 10	8.3	9.8	33%	2.2	6.8	> 10	> 10	undergo apoptosis				
N#C/C(=C\c1cc(O)c(O)c(Br)c1)C(=S)NCc1cc(O)c(O)c(O)c1 [Compound 7]	0.9	> 10	2.1	0.8	approximately 90%	1.8	0.6	> 10	6.6	undergo apoptosis	detected	87		
N#C/C(=C\c1cc(O)c(O)c(I)c1)C(=S)NCc1cc(O)c(O)c(O)c1 [Compound 8]	0.8	> 10	1.6	0.8	approximately 90%	1.6	0.6	5.8	6.5	undergo apoptosis	detected	87	82	approximately 85%
Oc1cc(CNC(=S)/C=C/c2cc(O)c(O)c(Br)c2)cc(O)c1O [Compound 9]	1.4	> 10	0.9	0.9	approximately 90%	0.5	0.4	7.2	1.8	undergo apoptosis	detected			
